Two molecules from patent US8796249B2, “TGR5 modulators and methods of use thereof” (Intercept Pharmaceuticals, Inc., priority 2008, dated 2014) can be followed below.

One data set has as its target T1, hTGR5 (Homo sapiens, UniProt Q8TDU6).
T1 sequence (Q8TDU6 1-330): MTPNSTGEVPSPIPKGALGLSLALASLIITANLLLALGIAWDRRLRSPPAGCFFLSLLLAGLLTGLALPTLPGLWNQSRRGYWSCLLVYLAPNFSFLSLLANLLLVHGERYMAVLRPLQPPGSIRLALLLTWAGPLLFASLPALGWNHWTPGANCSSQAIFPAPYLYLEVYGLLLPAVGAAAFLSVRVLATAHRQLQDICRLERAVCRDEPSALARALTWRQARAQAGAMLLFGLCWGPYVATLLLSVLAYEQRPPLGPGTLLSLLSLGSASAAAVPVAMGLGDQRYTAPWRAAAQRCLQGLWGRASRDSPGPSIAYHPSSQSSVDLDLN
Briefly: Transactivation assay (CRE-driven luciferase reporter) on hTGR5. It is filed as cell-based. The protocol: CHO cells were plated in 96-well plates at a density of 3.5×10^4 cells/well, cultured for 24 h, and then transfected with 150 ng of human (h) TGR5 expression plasmid (pCMVSPORT6/hTGR5) and 100 ng of cAMP-responsive element (CRE)-driven luciferase reporter plasmid (pCRE-Luc) in each well using Lipofectamine 2000 reagent (Invitrogen) according to the manufacturer's instructions. After 6 h incubation, cells were washed once with phosphate-buffered saline (PBS) and medium was exchanged for DMEM containing 0.1% (w/v) bovine serum albumin (BSA). After incubation for another 18 h, cells were treated for 5 h with different concentrations of each compound in fresh DMEM containing 0.1% (w/v) BSA.
For β-galactosidase assays, 10 μl of cell lysate was mixed with 100 μl of Buffer Z [60 mM Na2HPO4, 10 mM KCl, 1 mM MgSO4, 50 mM β-mercaptoethanol and 0.75 mg/ml o-nitrophenyl-β-D-galactopyranoside (ONPG)] and incubated at 37° C. for 0.5-3 h. Reactions were stopped by adding 50 μl of Stop buffer (1M Na2CO3) and the optical density at 420 nm was determined.
EC50 values were determined by probit analysis.
(Reporter assays use an easily measured gene product as a stand-in for the process of interest.)

For a further data set, the target named is T2, bovine serum albumin (Bos taurus, UniProt P02769).
T2 construct: dissolved at a concentration of 100 μM in 5% bovine serum albumin-saline solution (pH 7.2); from tissue; host or cells: bovine serum (only from the protein's name)
Briefly: Albumin binding by equilibrium dialysis. It is filed as in vitro ADME. As to conditions: 100 μM BA in 5% bovine serum albumin-saline, pH 7.2. Here is the method:
The extent of albumin binding was evaluated by equilibrium dialysis at a fixed BA-albumin ratio. BA was dissolved at a concentration of 100 μM in 5% bovine serum albumin-saline solution (pH 7.2) and left to stand for 24 h at 25° C. Two milliliters of this solution was dialyzed in cellulose sacs having a molecular weight cut-off of 12-14,000 against 25 ml of saline solution. The system was equilibrated by mechanical gently shaking for 72 h at 25° C. BA concentrations of the dialyzed solution (corresponding to the free unbound fraction) and of the starting solution were determined with HPLC-ESI-MS/MS in the same conditions of the previous analysis. The percent of albumin binding was calculate from the initial BA concentration and from the unbound concentration in the dialyzed fraction. All these compounds never less present an albumin binding compatible with a relatively fast hepatic uptake, similarly to natural occurring BA. Accordingly different kinetics (slower) of the liver uptake is expected.
Background: In equilibrium dialysis only unbound substance equilibrates across the membrane.

Another data set has as its target T3, LXRα (Homo sapiens, UniProt Q13133).
T3 sequence (Q13133 1-447): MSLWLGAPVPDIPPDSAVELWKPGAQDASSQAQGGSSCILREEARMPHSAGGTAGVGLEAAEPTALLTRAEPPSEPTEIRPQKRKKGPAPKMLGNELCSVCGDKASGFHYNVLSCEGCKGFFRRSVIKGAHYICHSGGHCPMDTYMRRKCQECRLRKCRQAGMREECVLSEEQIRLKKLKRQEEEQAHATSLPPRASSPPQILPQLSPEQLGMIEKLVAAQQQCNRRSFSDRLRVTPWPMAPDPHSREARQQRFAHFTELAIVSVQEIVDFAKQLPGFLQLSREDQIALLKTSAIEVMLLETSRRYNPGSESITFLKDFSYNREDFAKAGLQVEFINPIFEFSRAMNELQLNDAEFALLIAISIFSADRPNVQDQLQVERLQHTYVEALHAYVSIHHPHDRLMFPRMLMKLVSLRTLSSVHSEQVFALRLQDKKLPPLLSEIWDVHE
Kind of data set: LXR coactivator recruitment (alphascreen). To be noted: ref standard T0901317. It is filed as biochemical. The protocol:
(§1) The selectivity of compounds of the invention was evaluated using assay methods known in the art. Specifically, the following assay methods were used: • FXR and LXR: Coactivator Recruitment (alphascreen); • TGR5: cAMP level on human intestinal cell line (NCI-H716); • PXR: Ligands Competition assay (Binding Assay) • CAR: Coactivator Recruitment (Lanthascreen)
(In general: In Alpha technology, singlet oxygen from a donor bead excites a nearby acceptor bead.)

Another data set addresses T4, VDR (Homo sapiens, UniProt P11473).
T4 sequence (P11473 1-427): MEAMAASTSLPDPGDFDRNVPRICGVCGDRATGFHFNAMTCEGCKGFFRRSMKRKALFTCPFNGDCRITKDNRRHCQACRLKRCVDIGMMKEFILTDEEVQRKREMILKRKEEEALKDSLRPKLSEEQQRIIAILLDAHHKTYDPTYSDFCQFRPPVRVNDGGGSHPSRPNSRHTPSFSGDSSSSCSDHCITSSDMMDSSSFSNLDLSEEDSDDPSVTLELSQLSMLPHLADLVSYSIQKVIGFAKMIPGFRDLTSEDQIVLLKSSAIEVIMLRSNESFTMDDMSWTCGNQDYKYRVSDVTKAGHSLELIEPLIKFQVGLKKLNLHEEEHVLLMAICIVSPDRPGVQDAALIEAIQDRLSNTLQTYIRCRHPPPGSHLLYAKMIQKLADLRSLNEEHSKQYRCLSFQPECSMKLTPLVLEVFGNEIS
Briefly: NR selectivity assay VDR. To be noted: unnamed ref standard 0.005 μM.

The target of a further data set is T5, hFXR (Homo sapiens, UniProt Q96RI1).
T5 sequence (Q96RI1 1-486): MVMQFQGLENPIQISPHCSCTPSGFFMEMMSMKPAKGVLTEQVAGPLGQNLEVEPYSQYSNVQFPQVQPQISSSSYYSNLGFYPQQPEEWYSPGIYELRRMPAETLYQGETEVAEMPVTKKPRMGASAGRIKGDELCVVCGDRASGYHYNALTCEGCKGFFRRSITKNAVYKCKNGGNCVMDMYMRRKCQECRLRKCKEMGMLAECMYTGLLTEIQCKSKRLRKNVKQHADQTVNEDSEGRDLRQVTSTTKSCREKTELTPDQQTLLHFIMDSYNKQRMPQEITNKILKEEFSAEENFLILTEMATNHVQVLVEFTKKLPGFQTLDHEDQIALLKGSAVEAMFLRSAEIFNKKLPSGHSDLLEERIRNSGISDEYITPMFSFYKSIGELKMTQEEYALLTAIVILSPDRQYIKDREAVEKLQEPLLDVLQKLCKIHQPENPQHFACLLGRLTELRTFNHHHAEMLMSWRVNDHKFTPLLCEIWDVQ
Kind of data set: Alphascreen coactivator recruitment assay on hFXR. It is filed as biochemical. Here is the method:
as §1

The mark [1] stands for this setting: NR selectivity table, coactivator recruitment (alphascreen), ref standard CDCA, read-out: FXR EC50.
[2] abbreviates: Table 1, reference standard CDCA, read-out: Alphascreen Assay hFXR EC50.

Structures can show the parent of a compound that is named as a salt. Where two headings read alike, the source gives them in different places.

Broadly, the EC50 is the concentration at which the effect is half-maximal.

T2 sequence (P02769 25-607): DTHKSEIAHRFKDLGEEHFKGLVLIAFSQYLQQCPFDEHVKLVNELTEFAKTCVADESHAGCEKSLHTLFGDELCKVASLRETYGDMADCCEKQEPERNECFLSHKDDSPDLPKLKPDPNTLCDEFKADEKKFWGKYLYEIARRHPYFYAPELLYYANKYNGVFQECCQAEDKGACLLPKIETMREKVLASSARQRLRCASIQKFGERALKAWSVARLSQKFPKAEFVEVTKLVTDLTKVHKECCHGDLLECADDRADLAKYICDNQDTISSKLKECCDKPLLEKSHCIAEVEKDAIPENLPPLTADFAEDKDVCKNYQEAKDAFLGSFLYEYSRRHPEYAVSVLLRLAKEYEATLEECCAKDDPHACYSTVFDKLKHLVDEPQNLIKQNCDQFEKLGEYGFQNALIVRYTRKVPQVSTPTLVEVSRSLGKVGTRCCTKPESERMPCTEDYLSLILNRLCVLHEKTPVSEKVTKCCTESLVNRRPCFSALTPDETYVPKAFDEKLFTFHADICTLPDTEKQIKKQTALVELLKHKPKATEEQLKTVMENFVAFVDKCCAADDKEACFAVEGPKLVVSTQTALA

As for `CCC1C(O)C2C3CCC(C(C)CC(C)OS(=O)(=O)O)C3(C)CCC2C2(C)CCC(O)CC12` [Compound 2A, 3α,7α,23-trihydroxy-6α-ethyl-23(S)-methyl-24-nor-5β-cholan-23-sulfate Sodium Salt], the concentration for a half-maximal effect (EC50) on hTGR5 came out at 1.2 µM; on hFXR (setting [1]), 0.14 µM; on hFXR (setting [2]), 0.145 ± 0.05 µM. In addition, at bovine serum albumin, the “Albumin Binding” value is on record as 97%. Also, the “LXRα EC50” value on LXRα is listed as “No”. For the same molecule, on VDR, the “VDR EC50” value is “No”.

Regarding `CC[C@H]1[C@@H](O)[C@@H]2[C@H](C[C@H](O)[C@]3(C)[C@@H]([C@H](C)CCCS(=O)(=O)[O-])CC[C@@H]23)[C@@]2(C)CC[C@@H](O)C[C@@H]12.[Na+]` [Compound 3A, 3α,7α,12α-trihydroxy-6α-ethyl-5β-cholan-24-sulfonate Sodium Salt], the 50% effective concentration (EC50) at hTGR5 was determined as 0.6 µM; at hFXR (setting [1]), 7 µM; on hFXR (setting [2]), 7 ± 3 µM. In addition, on bovine serum albumin, the “Albumin Binding” value was 81%. Moreover, the “LXRα EC50” value at LXRα was “No”. Also, the “VDR EC50” value at VDR is “No”.
